Data reported in article PMC11969009 (Nature Communications, 2025).
“And” between values parts separate entries of the source, which are not always exact repeats. Equal entries are not always repeated. Where two headings read alike, the source gives them in different places.

Key:
HKU1 PLpro = HKU1 PLpro (Human coronavirus HKU1, UniProt P0C6X2); assay: biochemical; format: biochemical; set-up: inhibition of HKU1 PLpro, UbRh dose-response replicate value: unit: %
[1] = test system: SARS-CoV-2 clinical isolate VIC001; assay: microbe, parasite or virus in culture; format: cell-based
SARS-CoV-2 PLpro [2] = target: T1, SARS-CoV-2 PLpro (Severe acute respiratory syndrome coronavirus 2, UniProt P0DTD1); assay: cell-based; format: cell-based
NL63 PL2pro = NL63 PL2pro (Human coronavirus NL63, UniProt P0C6X5); assay: biochemical; set-up: inhibition of NL63 PL2pro, UbRh dose-response replicate value: unit: %
NL63 PL2pro, sequence (P0C6X5 1578-1876 limits assumed): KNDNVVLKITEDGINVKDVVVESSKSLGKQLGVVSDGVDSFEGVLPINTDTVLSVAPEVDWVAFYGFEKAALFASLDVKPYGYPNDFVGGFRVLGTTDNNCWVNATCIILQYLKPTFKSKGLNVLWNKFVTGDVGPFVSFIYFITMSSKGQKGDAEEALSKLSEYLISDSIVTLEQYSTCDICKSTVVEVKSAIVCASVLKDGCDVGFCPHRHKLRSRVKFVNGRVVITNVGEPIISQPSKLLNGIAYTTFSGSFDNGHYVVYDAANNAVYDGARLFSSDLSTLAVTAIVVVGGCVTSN

229E PL2pro = 229E PL2pro (Human coronavirus 229E, UniProt P0C6X1); assay: biochemical; set-up: inhibition of 229E PL2pro, UbRh dose-response replicate value: unit: %
229E PL2pro, sequence (P0C6X1 1599-1905 limits assumed): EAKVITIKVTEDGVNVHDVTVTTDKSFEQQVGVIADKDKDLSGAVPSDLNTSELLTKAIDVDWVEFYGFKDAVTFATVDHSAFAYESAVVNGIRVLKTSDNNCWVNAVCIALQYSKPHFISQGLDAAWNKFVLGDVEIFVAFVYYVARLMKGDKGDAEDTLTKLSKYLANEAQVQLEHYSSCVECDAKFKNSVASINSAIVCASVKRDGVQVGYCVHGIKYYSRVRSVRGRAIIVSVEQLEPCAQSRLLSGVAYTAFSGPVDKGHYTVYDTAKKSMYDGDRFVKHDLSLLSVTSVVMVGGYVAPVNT

SARS-CoV-2 PLpro [3] = target: T1, SARS-CoV-2 PLpro; assay: biochemical; format: binding
SARS-CoV-2 PLpro [4] = target: T1, SARS-CoV-2 PLpro; assay: biochemical; set-up: inhibition of SARS-CoV-2 PLpro, UbRh dose-response replicate value: unit: %

HKU1 PLpro, sequence (P0C6X2 1648-1958 limits assumed): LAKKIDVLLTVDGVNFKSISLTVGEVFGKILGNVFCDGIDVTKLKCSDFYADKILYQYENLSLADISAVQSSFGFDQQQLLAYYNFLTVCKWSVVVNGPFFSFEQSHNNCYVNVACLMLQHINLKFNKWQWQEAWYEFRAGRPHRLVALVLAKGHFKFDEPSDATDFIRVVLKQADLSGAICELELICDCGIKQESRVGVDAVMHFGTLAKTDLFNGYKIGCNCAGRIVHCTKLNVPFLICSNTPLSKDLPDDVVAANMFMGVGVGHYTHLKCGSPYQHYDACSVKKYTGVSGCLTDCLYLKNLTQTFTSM

SMILES: CO/N=C(/c1ccc2cc(OC)ccc2c1)[C@@H]1CCCN([C@H]2CC[C@@H](O)CC2)C1 [WEHI-P4]
- inhibition of HKU1 PLpro, UbRh dose-response replicate value (HKU1 PLpro): 1.705 and -0.1054 and 2.2991 and 4.234 and 8.121 and -2.271 and 3.812 and 1.385 and 5.008 and 9.904 and 4.3232 and 13.1694 and 12.2718 and 4.484 and 1.663 and 12.2999 and 8.634 and 4.883 and 1.702 and 14.2701
- inhibition of HKU1 PLpro, UbRh dose-response replicate value (HKU1 PLpro; Conc 0.00498 µM): 10.7444 and 9.596 and 9.063
- inhibition at 0.00498 µM (HKU1 PLpro; Conc 0.00498 µM, read-out: inhibition of HKU1 PLpro, UbRh dose-response replicate value): 6.7%
- inhibition of HKU1 PLpro, UbRh dose-response replicate value (HKU1 PLpro; Conc 0.0149 µM): 6.961 and -0.5687 and 9.316 and 1.404
- inhibition of HKU1 PLpro, UbRh dose-response replicate value (HKU1 PLpro; Conc 0.0448 µM): 2.999 and 18.114 and 6.887 and 6.926
- inhibition of HKU1 PLpro, UbRh dose-response replicate value (HKU1 PLpro; Conc 3.63 µM): -1.799 and 2.922 and 4.67 and 5.455
- inhibition of HKU1 PLpro, UbRh dose-response replicate value (HKU1 PLpro; Conc 98 µM): -6.574 and 1.985 and 4.593 and -1.2047
- EC50 ([1]; Severe acute respiratory syndrome coronavirus 2, Vero, read-out: Antiviral EC50 (plaque assay)): 400 nM
- EC50 ([1]; Severe acute respiratory syndrome coronavirus 2, Vero, read-out: Antiviral EC50 (plaque assay) with Pgp inhibitor): 306 nM
- EC50 ([1]; read-out: Antiviral EC50 (plaque assay)): 410 nM
- EC50 (SARS-CoV-2 PLpro [2]): 310 nM
- IC50 (NL63 PL2pro): 52 µM
- inhibition of NL63 PL2pro, UbRh dose-response replicate value (NL63 PL2pro): 29.2044 and 27.2154 and 12.8016 and 14.0355 and 13.7224 and -0.9824 and 3.459 and 0.1256 and -0.3351 and 1.574 and 1.516 and -0.1016 and -0.4149 and 0.8753 and 0.8707 and 2.0171 and 6.071
- inhibition of NL63 PL2pro, UbRh dose-response replicate value (NL63 PL2pro; Conc 0.00498 µM): 2.403 and 7.259 and 5.7694 and -2.335
- inhibition of NL63 PL2pro, UbRh dose-response replicate value (NL63 PL2pro; Conc 0.0149 µM): 1.231 and 5.289 and 2.0908 and -3.1147
- inhibition of NL63 PL2pro, UbRh dose-response replicate value (NL63 PL2pro; Conc 0.0448 µM): 0.2539 and -0.387 and 1.95 and -0.1081
- inhibition of NL63 PL2pro, UbRh dose-response replicate value (NL63 PL2pro; Conc 3.63 µM): 5.122 and 3.572 and 1.225 and -0.02217
- inhibition of NL63 PL2pro, UbRh dose-response replicate value (NL63 PL2pro; Conc 98 µM): 57.8171 and 54.6906 and 55.1157
- inhibition at 98 µM (NL63 PL2pro; Conc 98 µM, read-out: inhibition of NL63 PL2pro, UbRh dose-response replicate value): 58.4%
- inhibition at […] (NL63 PL2pro; read-out: inhibition of NL63 PL2pro, UbRh dose-response replicate value): 34.7% and 15.8%
- inhibition of 229E PL2pro, UbRh dose-response replicate value (229E PL2pro): -3.299 and -1.103 and -1.357 and -1.684 and -5 and -3.221 and 0.1898 and -0.4439 and 15.3408 and -2.102 and -1.619 and -0.7174 and -1.603 and -0.8771 and -3.61 and -1.122 and -1.443 and -0.5265 and -4.511 and -0.9697
- inhibition of 229E PL2pro, UbRh dose-response replicate value (229E PL2pro; Conc 0.00498 µM): -2.024 and 3.205 and 24.2526 and 1.229
- inhibition of 229E PL2pro, UbRh dose-response replicate value (229E PL2pro; Conc 0.0149 µM): -0.08917 and 0.9383 and 15.3791 and -0.8809
- inhibition of 229E PL2pro, UbRh dose-response replicate value (229E PL2pro; Conc 0.0448 µM): -0.8342 and -1.338 and 5.491 and -0.5647
- inhibition of 229E PL2pro, UbRh dose-response replicate value (229E PL2pro; Conc 3.63 µM): -3.66 and -1.559 and -7.103 and -2.2201
- inhibition of 229E PL2pro, UbRh dose-response replicate value (229E PL2pro; Conc 98 µM): 0.4544 and 1.371 and 3.91 and 5.222
- Kd (SARS-CoV-2 PLpro [3]): 18 nM
- Response (RU), report points (SARS-CoV-2 PLpro [3]): 23.5521 RU and 19.8909 RU and 21.8514 RU and 23.0991 RU and 23.6093 RU and 23.8360 RU
- inhibition of SARS-CoV-2 PLpro, UbRh dose-response replicate value (SARS-CoV-2 PLpro [4]; Conc 0.000249 µM): -6.989 and -6.2311 and -15.3901 and -12.0234 and -3.121 and 2.182 and 11.6978 and 1.819
- inhibition of SARS-CoV-2 PLpro, UbRh dose-response replicate value (SARS-CoV-2 PLpro [4]; Conc 0.000745 µM): -5.473 and -5.949 and -17.0454 and -10.682
- inhibition of SARS-CoV-2 PLpro, UbRh dose-response replicate value (SARS-CoV-2 PLpro [4]; Conc 0.000747 µM): 12.1399 and 17.4092 and 12.0617
- inhibition at 0.000747 µM (SARS-CoV-2 PLpro [4]; Conc 0.000747 µM, read-out: inhibition of SARS-CoV-2 PLpro, UbRh dose-response replicate value): 8.73%
- inhibition of SARS-CoV-2 PLpro, UbRh dose-response replicate value (SARS-CoV-2 PLpro [4]; Conc 0.00498 µM): -1.775 and 0.6518 and -0.6615 and -14.6544
- inhibition of SARS-CoV-2 PLpro, UbRh dose-response replicate value (SARS-CoV-2 PLpro [4]; Conc 0.00675 µM): 22.4234 and 17.1978 and 22.0771
- inhibition at 0.00675 µM (SARS-CoV-2 PLpro [4]; Conc 0.00675 µM, read-out: inhibition of SARS-CoV-2 PLpro, UbRh dose-response replicate value): 23.8%
- inhibition of SARS-CoV-2 PLpro, UbRh dose-response replicate value (SARS-CoV-2 PLpro [4]; Conc 0.0149 µM): 22.1269 and 15.6043 and 12.3348
- inhibition at 0.0149 µM (SARS-CoV-2 PLpro [4]; Conc 0.0149 µM, read-out: inhibition of SARS-CoV-2 PLpro, UbRh dose-response replicate value): 20.2%
- inhibition of SARS-CoV-2 PLpro, UbRh dose-response replicate value (SARS-CoV-2 PLpro [4]; Conc 0.0448 µM): 70.4961 and 67.8098 and 82.9795
- inhibition at 0.0448 µM (SARS-CoV-2 PLpro [4]; Conc 0.0448 µM, read-out: inhibition of SARS-CoV-2 PLpro, UbRh dose-response replicate value): 69.6%
- inhibition of SARS-CoV-2 PLpro, UbRh dose-response replicate value (SARS-CoV-2 PLpro [4]; Conc 0.545 µM): 96.1218 and 96.9708 and 96.4204 and 99.1563 and 99.6768 and 97.5259 and 100.026
- inhibition at 0.545 µM (SARS-CoV-2 PLpro [4]; Conc 0.545 µM, read-out: inhibition of SARS-CoV-2 PLpro, UbRh dose-response replicate value): 94.8%
- inhibition of SARS-CoV-2 PLpro, UbRh dose-response replicate value (SARS-CoV-2 PLpro [4]; Conc 1.63 µM): 99.7919 and 99.9266 and 100.674
